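Compound exposure: 48 hours, 5 concentrations, 96-well plates. The concentration for full growth arrest is given as TGI.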

Common to all, as to assay: NCI anticancer screen, dose series, 48 h
For assay [1], the system named is A498 renal.
The subject of assay [2] is CAKI-1 renal.
The subject of assay [3] is CCRF-CEM leukemia.
The test system of assay [4] is HCC-2998 colon.
Assay [5] relates to HCT-15 colon.
The test system of assay [6] is IGROV1 ovarian.
In assay [7] the test system is NCI-H226 lung.
Assay [8] deals with NCI-H23 lung.
Assay [9] relates to SK-MEL-2 melanoma.
The subject of assay [10] is SNB-75 CNS.
In assay [11] the test system is SW-620 colon.
Assay [12] has as its system LOX IMVI melanoma.
In assay [13] the test system is T-47D breast.

Take `O=C(/C=C/c1cc(F)ccc1F)OCCc1ccccc1`: the TGI in assay [1], in [2], in assay [3], in assay [4], in assay [5] and in assay [6] was greater than 100 µM in each case. The TGI in [7], in assay [8], in [9], in assay [10] and in assay [11] was greater than 100 µM in each case.

For `C=CC(Br)(CBr)CCC(Br)C(C)(C)Br` (stereo not drawn), the TGI in [2] worked out at 37.4 µM; in [5] it was 31.8 µM; in [6], 28.5 µM; in assay [12], 25.5 µM; in [7], 32.8 µM; in assay [8] it was 30.3 µM. For the same molecule, the figures for the TGI in [9], in assay [10] and in [11] were 29.7 µM, 22.3 µM and 26.6 µM, respectively.

Turning to `OC1=CN=C(C2CC2)Oc2ccccc21`, the TGI in [1], in assay [3], in assay [4], in [5], in [6] and in assay [12] was greater than 100 µM in each case. For the same molecule, the TGI in [7], in assay [8], in [9], in [10] and in [11] was greater than 100 µM throughout.

On to `c1csc(-c2sc(-c3ccsc3)cc2Cc2ccsc2)c1`, for which the TGI in assay [2], in assay [3], in assay [4], in [5], in assay [6] and in assay [12] was greater than 10 µM each time. Besides, the TGI in [8], in [10], in assay [11] and in assay [13] was greater than 10 µM throughout.

Consider `Cc1ccc(S(=O)(=O)C(C#N)c2nc3ccccc3nc2N2CCOCC2)cc1` (stereo not drawn), for which the TGI is greater than 100 µM in assay [1]; 65 µM in [2]; 62.2 µM in assay [3]; 28.5 µM in [4]; greater than 100 µM in assay [5]; 59.1 µM in [6]. In addition, the TGI in [12] is 57.3 µM; in assay [7] it was greater than 100 µM; in assay [8], 55.1 µM; in assay [9], 88.6 µM; in [10], greater than 100 µM; in assay [11], greater than 100 µM.

Consider `COc1ccc(C(=O)/C=C/c2ccc(OCC#N)cc2)cc1OC`, for which the TGI in assay [2] was 37.5 µM; in assay [3] it was 31.3 µM; in assay [4], 33.3 µM; in assay [5] it was 45.5 µM; in [6], greater than 100 µM; in assay [7], 37.9 µM. Besides, the TGI in [8] came to 54.5 µM; in assay [10], 22.9 µM; in assay [11] it was 23.4 µM; in assay [13], 28.8 µM.

Take `COC(=O)NN/C=C(\C=Nc1ccccc1)[N+](=O)[O-]`: the TGI in [3], in assay [4], in assay [5], in [6], in assay [12] and in assay [8] was greater than 100 µM in each case. Further, in assay [11], the TGI is greater than 100 µM.

Take `Cc1ccc([S+](c2ccccc2)c2cc(C)ccc2C)cc1` (stereo not drawn): the TGI in assay [1] is 32.1 µM; in assay [2], greater than 100 µM; in assay [3], greater than 100 µM; in assay [4] it was 28.5 µM; in assay [6], 25.3 µM; in [12] it was greater than 100 µM. Besides, the TGI in assay [10] is 2.9 µM; in assay [11], greater than 100 µM.

Turning to `C=C(C)C1Cc2c(cc(OC)c3c(=O)c4ccccc4n(C)c23)O1` (stereo not drawn), the TGI in [1], in assay [2], in [3], in [4], in assay [5] and in [6] was greater than 100 µM throughout. Further, the TGI in assay [12], in assay [7], in assay [8], in [9], in assay [10] and in assay [11] was greater than 100 µM throughout.

On to `c1ccc2c(c1)ccc1nc3ccccn3c12`, for which the TGI in assay [3], in [4], in [5], in [6], in assay [7] and in [8] was greater than 100 µM throughout. In addition, the TGI in assay [10], in [11] and in assay [13] was greater than 100 µM in each case.

Consider `Cc1ccc(O)c(-c2cc(-c3ccccc3)nc(/N=C\c3ccccc3)n2)c1`, for which the TGI in assay [3] was greater than 100 µM; in assay [5], greater than 100 µM; in assay [6], 44 µM; in assay [12], greater than 100 µM; in [7] it was greater than 100 µM; in assay [8], 81.5 µM. For the same molecule, the TGI is greater than 100 µM in assay [9], 40.9 µM in assay [10], greater than 100 µM in [11] and greater than 100 µM in assay [13].

As for `O=C(OCC(Cl)(Cl)Cl)N1CC[C@@H](C2CCCCC2)C1`, the TGI in assay [2] is 76.5 µM; in [3], 46.7 µM; in [4], 36.7 µM; in assay [5], 35.9 µM; in assay [6], greater than 100 µM; in assay [12] it was greater than 100 µM. The TGI in assay [8] was 64.2 µM; in assay [9], 33.1 µM; in assay [10] it was 48.7 µM; in assay [13], greater than 100 µM.

`CCOC(=O)c1ncn2c1[nH]c(=O)c1ccccc12`: the TGI in assay [3], in assay [5], in [6], in assay [12], in [7] and in assay [8] was greater than 100 µM in each case. The TGI in [9], in [10] and in [11] was greater than 100 µM throughout.

The values are drawn from PubChem BioAssay (NCI).
